In ChEMBL document CHEMBL1201862, “PubChem BioAssay data set” (2004):
Calls of active or inactive are those of the source.

Legend:
Genome polyprotein = Genome polyprotein (dengue virus type 2, UniProt P29990); assay: flavivirus cap methylation enzyme inhibition – biochemical, confirmation dose response, primary screen (AID 588689); type: functional
[1] = target: T1, Corticotropin-releasing factor receptor 2/Corticotropin-releasing factor-binding protein (Homo sapiens, UniProt P24387+Q13324); assay: activators of CRF receptor 2 with binding protein – uHTS hits, confirmation (AID 602473); type: functional; conditions: read-out: EC50_Mean
T1 sequence (Q13324 whole entry): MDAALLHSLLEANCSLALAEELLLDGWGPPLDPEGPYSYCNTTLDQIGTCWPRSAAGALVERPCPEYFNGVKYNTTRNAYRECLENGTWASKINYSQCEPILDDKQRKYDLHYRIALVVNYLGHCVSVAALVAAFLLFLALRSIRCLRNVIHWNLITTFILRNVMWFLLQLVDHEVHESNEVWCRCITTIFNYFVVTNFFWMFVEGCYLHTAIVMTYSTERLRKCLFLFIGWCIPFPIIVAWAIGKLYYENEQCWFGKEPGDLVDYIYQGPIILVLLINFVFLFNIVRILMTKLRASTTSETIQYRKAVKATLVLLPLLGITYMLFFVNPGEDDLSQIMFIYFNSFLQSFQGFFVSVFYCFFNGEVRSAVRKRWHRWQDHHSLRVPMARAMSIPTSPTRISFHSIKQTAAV
T1 sequence (P24387 whole entry): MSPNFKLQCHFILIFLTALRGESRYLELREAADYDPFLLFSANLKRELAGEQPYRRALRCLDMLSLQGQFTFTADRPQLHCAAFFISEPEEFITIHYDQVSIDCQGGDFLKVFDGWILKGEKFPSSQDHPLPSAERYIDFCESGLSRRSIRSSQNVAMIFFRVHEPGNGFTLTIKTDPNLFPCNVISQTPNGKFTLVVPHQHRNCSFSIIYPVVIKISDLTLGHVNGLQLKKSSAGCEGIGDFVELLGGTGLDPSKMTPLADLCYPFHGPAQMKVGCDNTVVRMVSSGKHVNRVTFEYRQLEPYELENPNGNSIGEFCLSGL

[2] = target: T1, Corticotropin-releasing factor receptor 2/Corticotropin-releasing factor-binding protein; assay: Dose Response confirmation of uHTS hits for small molecule antagonists of the CRF-binding protein and CRF-R2 receptor complex.; type: functional; conditions: read-out: IC50_Mean
[3] = blockers of CRF-binding protein–CRF-R2 complex – cell-based, uHTS hits, 384-well, dose response (AID 651639); type: functional, Homo sapiens; conditions: read-out: IC50_Mean
[4] = target: T2, High affinity choline transporter 1 (Homo sapiens, UniProt Q9GZV3); assay: human choline transporter blockers, potency – cell-based, 5-point CRC, membrane potential dye, dose response (AID 504840); type: functional
T2 sequence (Q9GZV3 whole entry): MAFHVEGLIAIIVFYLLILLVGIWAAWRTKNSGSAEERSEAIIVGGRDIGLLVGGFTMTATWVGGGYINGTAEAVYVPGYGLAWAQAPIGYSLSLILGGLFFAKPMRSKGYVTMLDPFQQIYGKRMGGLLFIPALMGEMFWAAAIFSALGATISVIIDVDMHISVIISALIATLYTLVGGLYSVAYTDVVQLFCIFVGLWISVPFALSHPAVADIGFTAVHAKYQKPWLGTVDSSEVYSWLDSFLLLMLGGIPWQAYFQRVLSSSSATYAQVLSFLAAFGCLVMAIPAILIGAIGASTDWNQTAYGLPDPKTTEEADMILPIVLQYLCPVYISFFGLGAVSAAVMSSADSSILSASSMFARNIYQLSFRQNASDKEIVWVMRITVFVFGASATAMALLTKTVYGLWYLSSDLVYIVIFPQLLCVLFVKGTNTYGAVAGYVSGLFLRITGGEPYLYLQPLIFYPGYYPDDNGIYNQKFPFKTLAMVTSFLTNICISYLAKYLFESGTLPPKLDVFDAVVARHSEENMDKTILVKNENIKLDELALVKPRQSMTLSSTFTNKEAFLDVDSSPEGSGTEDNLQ

[5] = NIH3T3 cell viability loss – ATP luminescence, mouse fibroblasts, counter-screen, dose response (AID 2010); type: functional, cell-based;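 note: cells exposed to compound for about 90 hours before reading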
[6] = Trypanosoma cruzi growth suppression in host cells – NIH3T3 host cells, beta-gal luminescence, confirmation (AID 2044); type: functional, cell-based;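 note: intracellular parasites grown in NIH/3T3 mouse fibroblasts as host cells; luminescent beta-galactosidase reporter signal from transgenic T. cruzi replicating inside host cells; inhibitors lower the luminescence signal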
[7] = viability of HCT116 lacking mutant beta-catenin – cell-based, human colon tumor, dose response (AID 1045); type: functional;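 note: HCT116 colon tumor cells with beta catenin knocked out; cells exposed to compound for 60 hours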
[8] = HepG2 cell cytotoxicity, dose response, cytotoxicity control for non-replicating M. tuberculosis project (AID 489018); type: functional; conditions: Mycobacterium tuberculosis
[9] = target: T3, Heat shock factor protein 1 (Mus musculus, UniProt P38532); assay: enhancement of HSF1-driven luciferase signal – cell-based, NIH3T3, luminescence, dose retest, confirmation (AID 435004); type: functional;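 note: stress induced by proteasome inhibitor MG132 added 30 min after compound; luciferase reporter driven by HSF1 response element in NIH3T3 cells; actives raise luminescence as potentiators of the MG132 stress response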
T3 sequence (P38532 whole entry): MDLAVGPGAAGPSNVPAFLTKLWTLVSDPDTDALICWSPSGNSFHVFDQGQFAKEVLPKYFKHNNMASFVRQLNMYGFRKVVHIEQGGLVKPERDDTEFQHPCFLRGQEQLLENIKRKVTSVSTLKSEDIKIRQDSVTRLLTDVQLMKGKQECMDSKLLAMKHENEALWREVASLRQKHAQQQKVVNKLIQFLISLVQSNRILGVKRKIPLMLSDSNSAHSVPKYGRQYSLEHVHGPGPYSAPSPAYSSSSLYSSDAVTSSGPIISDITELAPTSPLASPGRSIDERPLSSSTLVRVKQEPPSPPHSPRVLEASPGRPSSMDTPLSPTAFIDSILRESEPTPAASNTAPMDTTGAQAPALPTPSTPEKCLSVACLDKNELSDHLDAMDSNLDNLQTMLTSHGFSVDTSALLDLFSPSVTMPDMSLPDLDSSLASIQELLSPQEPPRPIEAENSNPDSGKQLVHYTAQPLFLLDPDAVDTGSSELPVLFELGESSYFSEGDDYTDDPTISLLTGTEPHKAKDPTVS

[10] = target: T4, Microphthalmia-associated transcription factor (Homo sapiens, UniProt O75030); assay: reducers of TRPM1 reporter luminescence, concentration series – cell-based, SK-MEL-5, cherry-picked, set 3, MITF inhibitor project, dose response (AID 493073); type: functional;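 note: SK-MEL-5 melanoma cells with luciferase driven by the MITF target TRPM1 promoter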
T4 sequence (O75030 whole entry): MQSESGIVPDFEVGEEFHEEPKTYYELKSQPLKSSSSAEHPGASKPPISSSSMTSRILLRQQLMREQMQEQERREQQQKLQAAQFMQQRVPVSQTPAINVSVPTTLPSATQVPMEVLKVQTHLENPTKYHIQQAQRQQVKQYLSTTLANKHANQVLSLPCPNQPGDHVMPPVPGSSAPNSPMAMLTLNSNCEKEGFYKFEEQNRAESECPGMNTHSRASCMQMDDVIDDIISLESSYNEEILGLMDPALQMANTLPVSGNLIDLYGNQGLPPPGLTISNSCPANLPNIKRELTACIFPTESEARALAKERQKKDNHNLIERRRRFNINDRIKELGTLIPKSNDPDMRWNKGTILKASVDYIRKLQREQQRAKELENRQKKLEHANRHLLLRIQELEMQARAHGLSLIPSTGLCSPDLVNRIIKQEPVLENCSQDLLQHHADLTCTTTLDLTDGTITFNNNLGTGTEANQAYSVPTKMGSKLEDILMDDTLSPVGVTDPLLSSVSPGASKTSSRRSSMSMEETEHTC

cells = type: functional
[11] = Vero E6 cell cytotoxicity, dose response, cytotoxicity control for non-replicating M. tuberculosis project, secondary assay (AID 492998); type: functional, VeroE6; conditions: Vero C1008
[12] = THP-1 cell cytotoxicity, dose response, cytotoxicity control for non-replicating M. tuberculosis project (AID 489025); type: functional
[13] = viability of PTEN-deleted HCT116 cells – cell-based, HCT116 PTEN knockout, dose response (AID 1047); type: functional;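 note: HCT116 colon tumor cells with PTEN knocked out; cells exposed to compound for 60 hours before readout; potency for loss of cell viability measured by luminescence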
[14] = tested on: Streptococcus sp. 'group A'; assay: Streptococcus pyogenes SK(-)GAS viability under kanamycin – luminescence, BacTiterGlo, confirmation, counter-screen for streptokinase expression inhibitor project, dose response (AID 1900); type: functional, organism-based
Streptokinase A = target: T5, Streptokinase A (Streptococcus pyogenes serotype M1, UniProt P10520); assay: viability-normalized secreted streptokinase activity reduction – plasminogen activation absorbance, OD405, dose response (AID 1914); type: functional, Streptococcus pyogenes M1 GAS;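 note: secreted streptokinase activity via plasminogen activation per viability signal from cell pellet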
T5 sequence (P10520 whole entry): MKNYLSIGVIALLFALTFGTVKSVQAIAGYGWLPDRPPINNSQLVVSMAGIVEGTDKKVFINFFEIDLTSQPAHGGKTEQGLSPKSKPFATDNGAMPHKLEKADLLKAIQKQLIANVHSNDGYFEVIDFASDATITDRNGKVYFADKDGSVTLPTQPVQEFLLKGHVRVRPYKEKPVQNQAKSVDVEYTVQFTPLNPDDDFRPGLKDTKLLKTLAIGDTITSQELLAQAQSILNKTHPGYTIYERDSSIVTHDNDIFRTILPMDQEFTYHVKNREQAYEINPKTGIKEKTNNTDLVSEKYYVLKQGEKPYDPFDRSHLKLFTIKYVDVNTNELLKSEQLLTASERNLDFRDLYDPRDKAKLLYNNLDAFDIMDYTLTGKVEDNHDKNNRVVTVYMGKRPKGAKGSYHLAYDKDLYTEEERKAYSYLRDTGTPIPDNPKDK

Streptococcus = assay: GAS UMAA2166 growth inhibition – luminescence, BacTiterGlo, counter-screen for streptokinase expression inhibitor project, dose response (AID 1915); type: functional, organism-based;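 note: potency for reduction of bacterial viability or growth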
[15] = target: FAD-linked sulfhydryl oxidase ALR (Homo sapiens, UniProt P55789); assay: ALR-catalysed DTT oxidation blockers – biochemical, H2O2 detection, luminescence, cherry-pick, dose response (AID 493248)
[16] = target: Ras and Rab interactor 1/Tyrosine-protein kinase ABL1 (Homo sapiens, UniProt P00519+Q13671); type: functional;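 note: biochemical TR-FRET dose-response test measuring inhibition of binding between Rin1 and Abl proteins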
[17] = target: T6, Short transient receptor potential channel 4 (Mus musculus, UniProt Q9QUQ5); assay: calcium entry via TRPC4 opening agents – cell-based, HEK293 TRPC4/mu-opioid, Fluo-4 calcium, dose response (AID 434937); type: functional
T6 sequence (Q9QUQ5 whole entry): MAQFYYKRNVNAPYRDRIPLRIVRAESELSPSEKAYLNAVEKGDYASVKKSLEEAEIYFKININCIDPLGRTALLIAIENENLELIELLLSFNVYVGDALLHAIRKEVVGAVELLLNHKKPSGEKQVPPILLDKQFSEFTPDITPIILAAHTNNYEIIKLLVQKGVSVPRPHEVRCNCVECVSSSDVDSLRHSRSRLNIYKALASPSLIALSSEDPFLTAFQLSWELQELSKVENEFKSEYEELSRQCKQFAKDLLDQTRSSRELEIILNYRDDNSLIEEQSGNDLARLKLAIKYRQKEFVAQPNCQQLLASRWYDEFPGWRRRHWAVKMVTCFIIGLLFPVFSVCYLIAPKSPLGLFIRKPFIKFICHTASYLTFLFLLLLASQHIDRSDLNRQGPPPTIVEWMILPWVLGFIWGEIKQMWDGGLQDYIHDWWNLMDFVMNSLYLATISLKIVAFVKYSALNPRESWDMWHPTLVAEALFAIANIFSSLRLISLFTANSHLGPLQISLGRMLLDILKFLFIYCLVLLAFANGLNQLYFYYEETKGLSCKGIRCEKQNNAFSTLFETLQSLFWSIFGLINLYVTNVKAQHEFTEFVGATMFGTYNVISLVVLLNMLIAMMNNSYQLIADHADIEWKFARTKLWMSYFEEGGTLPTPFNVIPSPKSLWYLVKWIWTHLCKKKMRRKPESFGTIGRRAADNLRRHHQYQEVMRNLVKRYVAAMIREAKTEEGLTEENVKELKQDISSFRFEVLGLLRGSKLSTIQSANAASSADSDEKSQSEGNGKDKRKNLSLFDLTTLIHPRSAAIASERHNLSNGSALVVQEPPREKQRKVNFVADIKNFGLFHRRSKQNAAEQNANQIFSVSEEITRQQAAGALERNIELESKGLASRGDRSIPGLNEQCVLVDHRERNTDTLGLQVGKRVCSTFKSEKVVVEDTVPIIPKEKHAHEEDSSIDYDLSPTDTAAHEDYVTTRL

Chain of Ras and Rab interactor 1/Tyrosine-protein kinase ABL1 (P00519 whole entry): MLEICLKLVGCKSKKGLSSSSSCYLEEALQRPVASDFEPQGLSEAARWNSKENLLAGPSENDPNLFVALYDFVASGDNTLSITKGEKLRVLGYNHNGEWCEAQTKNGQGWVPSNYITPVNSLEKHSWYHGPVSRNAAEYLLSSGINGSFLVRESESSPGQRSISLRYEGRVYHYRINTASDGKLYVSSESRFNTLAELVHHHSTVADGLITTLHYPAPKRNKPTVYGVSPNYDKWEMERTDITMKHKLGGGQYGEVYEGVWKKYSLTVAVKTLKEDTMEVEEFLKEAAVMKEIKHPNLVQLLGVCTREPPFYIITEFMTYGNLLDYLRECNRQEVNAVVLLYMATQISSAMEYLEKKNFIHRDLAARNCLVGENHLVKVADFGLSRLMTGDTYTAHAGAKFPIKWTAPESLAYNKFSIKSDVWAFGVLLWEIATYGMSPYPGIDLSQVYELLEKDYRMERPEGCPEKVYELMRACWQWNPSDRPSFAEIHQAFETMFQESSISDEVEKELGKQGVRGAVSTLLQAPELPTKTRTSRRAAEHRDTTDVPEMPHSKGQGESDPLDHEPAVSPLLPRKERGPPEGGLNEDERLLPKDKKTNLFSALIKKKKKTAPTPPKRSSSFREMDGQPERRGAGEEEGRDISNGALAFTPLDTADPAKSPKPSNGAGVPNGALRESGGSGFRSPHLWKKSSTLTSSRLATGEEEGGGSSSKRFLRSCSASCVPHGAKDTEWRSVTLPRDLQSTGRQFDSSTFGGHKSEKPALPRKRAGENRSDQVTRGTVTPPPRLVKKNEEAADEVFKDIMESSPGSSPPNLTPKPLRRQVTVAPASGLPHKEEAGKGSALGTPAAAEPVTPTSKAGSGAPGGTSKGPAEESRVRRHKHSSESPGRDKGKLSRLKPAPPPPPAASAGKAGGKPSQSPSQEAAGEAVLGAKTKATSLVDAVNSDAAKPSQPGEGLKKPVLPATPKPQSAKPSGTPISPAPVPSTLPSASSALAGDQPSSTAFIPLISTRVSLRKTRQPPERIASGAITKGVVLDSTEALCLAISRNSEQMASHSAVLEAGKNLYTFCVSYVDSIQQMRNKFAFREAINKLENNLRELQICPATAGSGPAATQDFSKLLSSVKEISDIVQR
Chain of Ras and Rab interactor 1/Tyrosine-protein kinase ABL1 (Q13671 whole entry): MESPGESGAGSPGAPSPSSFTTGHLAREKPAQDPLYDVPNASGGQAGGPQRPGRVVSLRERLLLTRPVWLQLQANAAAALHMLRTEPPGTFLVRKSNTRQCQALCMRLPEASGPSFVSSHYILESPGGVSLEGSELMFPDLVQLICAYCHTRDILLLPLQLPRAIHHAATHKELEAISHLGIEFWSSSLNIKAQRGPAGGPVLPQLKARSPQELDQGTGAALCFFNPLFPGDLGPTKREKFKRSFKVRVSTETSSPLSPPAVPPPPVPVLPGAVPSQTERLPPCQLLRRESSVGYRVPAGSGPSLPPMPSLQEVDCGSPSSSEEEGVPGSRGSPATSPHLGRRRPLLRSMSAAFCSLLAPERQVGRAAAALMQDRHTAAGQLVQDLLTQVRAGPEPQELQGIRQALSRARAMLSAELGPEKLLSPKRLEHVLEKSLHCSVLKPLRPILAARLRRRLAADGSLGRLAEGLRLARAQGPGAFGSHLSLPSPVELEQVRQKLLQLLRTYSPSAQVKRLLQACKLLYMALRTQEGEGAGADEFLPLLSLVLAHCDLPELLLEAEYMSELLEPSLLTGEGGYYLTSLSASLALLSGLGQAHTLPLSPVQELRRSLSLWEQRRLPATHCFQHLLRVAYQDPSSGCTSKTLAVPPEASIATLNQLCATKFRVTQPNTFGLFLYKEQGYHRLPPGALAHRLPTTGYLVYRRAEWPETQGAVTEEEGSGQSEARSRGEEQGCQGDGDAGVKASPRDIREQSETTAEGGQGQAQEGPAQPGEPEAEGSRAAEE
Chain of FAD-linked sulfhydryl oxidase ALR (P55789 whole entry): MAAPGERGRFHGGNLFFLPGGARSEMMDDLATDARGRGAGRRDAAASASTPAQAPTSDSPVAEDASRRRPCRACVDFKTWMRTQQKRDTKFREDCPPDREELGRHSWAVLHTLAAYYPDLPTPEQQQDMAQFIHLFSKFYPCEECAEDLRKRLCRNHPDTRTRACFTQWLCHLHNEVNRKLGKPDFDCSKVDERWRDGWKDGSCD
Chain of Genome polyprotein (P29990 2492-3391 limits assumed): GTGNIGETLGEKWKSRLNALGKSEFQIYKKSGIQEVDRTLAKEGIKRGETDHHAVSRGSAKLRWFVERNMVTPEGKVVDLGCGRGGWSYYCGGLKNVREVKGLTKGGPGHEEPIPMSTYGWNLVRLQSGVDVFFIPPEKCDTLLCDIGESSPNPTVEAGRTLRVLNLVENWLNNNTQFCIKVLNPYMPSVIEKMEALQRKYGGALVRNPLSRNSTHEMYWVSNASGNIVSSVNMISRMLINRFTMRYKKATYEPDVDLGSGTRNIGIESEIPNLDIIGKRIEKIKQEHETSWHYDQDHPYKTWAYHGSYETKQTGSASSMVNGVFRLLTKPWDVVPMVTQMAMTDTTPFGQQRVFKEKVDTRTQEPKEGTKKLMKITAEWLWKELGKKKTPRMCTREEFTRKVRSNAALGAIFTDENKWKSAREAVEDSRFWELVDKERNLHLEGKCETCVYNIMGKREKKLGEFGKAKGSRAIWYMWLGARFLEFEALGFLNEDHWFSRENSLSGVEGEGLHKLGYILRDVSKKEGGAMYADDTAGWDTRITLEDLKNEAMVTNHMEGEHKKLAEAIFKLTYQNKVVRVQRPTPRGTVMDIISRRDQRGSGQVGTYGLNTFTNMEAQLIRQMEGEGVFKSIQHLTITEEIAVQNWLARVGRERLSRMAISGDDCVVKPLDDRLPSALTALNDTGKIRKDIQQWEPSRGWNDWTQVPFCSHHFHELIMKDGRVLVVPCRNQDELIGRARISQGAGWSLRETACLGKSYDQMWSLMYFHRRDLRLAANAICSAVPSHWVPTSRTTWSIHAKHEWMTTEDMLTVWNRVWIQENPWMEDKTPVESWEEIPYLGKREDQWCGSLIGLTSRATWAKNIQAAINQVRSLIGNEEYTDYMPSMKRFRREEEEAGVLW

## O=c1c(Sc2ccccc2)c(C(F)(F)F)[nH]n1-c1ccccc1
Genome polyprotein
  IC50: 59.5 µM (active)
[1]
  EC50: > 53 µM (inactive)
[2]
  IC50: 22.3 µM (active)
[3]
  IC50: > 20 µM (inactive)

## Cc1ccc(NC(=O)c2ccc(CN3CC(=O)N4CCCCC4C3=O)cc2)c(C)c1 (stereo not given)
[4]
  IC50: 4.47 µM (active)

## O=[N+]([O-])c1ccc(-n2nnnc2-c2ccccc2)c([N+](=O)[O-])c1
[5]
  EC50: > 60 µM (not active)
[6]
  EC50: 1.75 µM (active)
[7]
  EC50: 5.3 µM (active)
[8]
  CC50: 19.2 µM (active)
[9]
  EC50: 9.09 µM (active)
[10]
  AC50: 7.37 µM (active)
cells
  IC50: 5.22 µM (active)
[11]
  CC50: 8.41 µM (active)
[12]
  CC50: 19.6 µM (active)
[13]
  EC50: 4.92 µM (active)

## Oc1cc2ccccc2cc1-c1nnc(S)o1
[14]
  EC50: 10.3 µM (active)
Streptokinase A
  EC50: 23.5 µM (active)
[1]
  EC50: > 53 µM (inactive)
[2]
  IC50: 10.5 µM (active)
Streptococcus
  EC50: > 150 µM (not active)
[3]
  IC50: 13.4 µM (active)
[15]
  AC50: 0.301 µM (active)

## COc1ccc(Oc2ccc(C(F)(F)F)cc2NC(=O)c2ccc(OC)cc2)cc1
[1]
  EC50: > 53 µM (inactive)
[2]
  IC50: < 0.368 µM (active)
[3]
  IC50: 7.95 µM (active)

## CC(C)c1ccc(NC(=O)CSc2nnc(CN3CCOCC3)n2C)cc1
[16]
  IC50: 14.2 µM (inactive)

## CC1CC(C)CN(CCCNC(=O)c2nn(C)c3c2CS(=O)(=O)c2ccccc2-3)C1 (stereo not given)
[17]
  EC50: 0.237 µM (active)

## C=CCNc1ncnc2c1ncn2[C@H]1CN(Cc2ccc(-c3ccccc3)cc2)C[C@@H](CO)O1
[16]
  IC50: 24.2 µM (inactive)

## COc1cccc(/C=C2\SC(=S)N(NC(=O)c3ccncc3)C2=O)c1
[4]
  IC50: 12.6 µM (active)

## COc1ccc(-n2c3c(cc(C(=O)NNc4ccccc4)c2=O)C(=O)CC(C)(C)C3)cc1
[17]
  EC50: 1.06 µM (active)
